This note sets out measurements from patent publication US9492482B2, “Engineered cells expressing multiple immunomodulators and uses thereof” (Intrexon Corporation, priority 2008, dated 2016).

The structures appear in SMILES notation.

For this test, the system named is DC.RheoIL12. Briefly: IL-12 secretion from DC.RheoIL12 with or without activating ligand. Format: cell-based. The note with it: in the presence of the activating ligand RG-115830 but not in the absence of the ligand. The procedure: In one embodiment, the invention provides an engineered population of immune cells and TSC. In one embodiment, day 7 cultured DC are treated with recombinant adenovirus encoding an immunomodulator and/or IL-12 driven off a constitutive or inducible promoter, or are infected with mock, control adenovirus vector (rAdψ5), over a range of multiplicity of infection (MOIs). After 48 h, infected DC are harvested and analyzed for phenotype and for production of an immunomodulator and/or IL-12 using a specific ELISA kit (BD-PharMingen, San Diego, Calif.), with a lower level of detection of 62.5 pg/ml.

In the case of `CCCC(N(NC(=O)c1cccc(OC)c1CC)C(=O)c1cc(C)cc(C)c1)C(C)(C)C` (stereo not shown) [RG-115830, 3,5-Dimethyl-benzoic acid N-(1-tert-butyl-butyl)-N′-(2-ethyl-3-methoxy-benzoyl)-hydrazide], the “IL-12 secreted from DC.RheoIL12” value is “elevated levels of IL-12 are secreted”.
